Experimental data: patent publication US8183373B2, “Solid state forms of sitagliptin salts” (Teva Pharmaceutical Industries Ltd., priority 2010, dated 2012)
Counter-ions that a name gives are not always drawn.

Tests used:
Format in all cases: physicochemical
[1] = Solubility of Form S14 in aqueous media at 37° C.; settings: for solubility: thermodynamic from solid, read-out: Concentration (solubility)
Description: (§1) Solubility was tested by addition of portions of […] solution to 25 mg of STG salt and stirring it at 37° C. for 1-2 minutes till dissolved. Form S14 was also found to be chemically and polymorphically stable.

[2] = Storage of a crystalline form under controlled relative humidity, form determined by powder XRD
Description: About 100 mg of Sitagliptin L-malate form I1 was put in an open yellow plastic cap, and kept at 100% relative humidity (RH) and room temperature for 6 days. It was then analyzed by powder XRD, and found to have transformed into form I2.
About 150 mg of Sitagliptin sulfate form S2 was put in an open Petri dish, and kept at 100±5% RH and room temperature for 12 days. It was then analyzed by powder XRD, and found to have transformed into form S9.
About 150 mg of Sitagliptin sulfate form S6 was put in an open Petri dish, and kept at 100±5% RH and room temperature for 12 days. It was then analyzed by powder XRD, and found to have transformed into form S9.
About 150 mg of Sitagliptin sulfate form S14 was stored under 80% RH at 25° C. for 7 days. The sample was then tested by XRPD and determined to be crystal form Si of Sitagliptin sulfate.
About 150 mg of Sitagliptin sulfate form S14 was stored under 100% RH at 25° C. for 7 days.
About 150 mg of Sitagliptin sulfate form S14 was stored under 70% RH at 25° C. for 7 days. The sample was then tested by XRPD and determined to be crystal form S1 of Sitagliptin sulfate.
About 150 mg of Sitagliptin sulfate form S14 was stored under 60% RH at 40° C. for 3 days. The sample was then tested by XRPD and determined to be crystal form S1 of Sitagliptin sulfate.

[3] = Stability test in 0-100% relative humidity cells, 7 days, room temperature (XRPD and TGA); settings: for Polymorphically stable up to (relative humidity): 7 days at room temperature; for Equilibrium amount of water: from TGA of the humidity test
Description: A sample of form S14 was equilibrated in 0-100% relative humidity cells for 7 days at room temperature. The samples were analyzed by XRPD and TGA. […] 10-15 mg samples were placed into 150 μL alumina crucibles and scanned between 25-250° C. at 10°/minute heating rate under 40 ml/minute N2 flow rate. For XRPD the ARL instrument was used. A sample of form S16 was equilibrated in 0-100% relative humidity cells for 7 days at room temperature. The samples were analyzed by XRPD and TGA. […] 10-15 mg samples were placed into 150 μL alumina crucibles and scanned between 25-250° C. at 10°/minute heating rate under 40 ml/minute N2 flow rate. For XRPD the ARL instrument was used.

[4] = Chemical and polymorphic storage stability of Form S14; settings: six months at 25° C.
Description: as §1

[5] = Water solubility of Form S16 (European Pharmacopoeia classification)
[6] = 0% RH, 7 days, room temperature
[7] = 20% RH, 7 days, room temperature
[8] = 40% RH, 7 days, room temperature
[9] = 60% RH, 7 days, room temperature
[10] = 80% RH, 7 days, room temperature
[11] = 100% RH, 7 days, room temperature

Row | Hygroscopicity [3] | % weight loss (TGA) [3, 6] [%] | % weight loss (TGA) [3, 7] [%] | % weight loss (TGA) [3, 8] [%] | % weight loss (TGA) [3, 9] [%] | % weight loss (TGA) [3, 10] [%] | % weight loss (TGA) [3, 11] [%] | Polymorphically stable up to (relative humidity) [3] | % weight loss (TGA) ([3]; Before the experiment) [%] | Equilibrium amount of water [3] | SMILES | also measured
1 | hygroscopic | 2.3 | 2.0 | 1.9 | 2.4 | 4.4 | 8.9 | up to 60 % RH | 3.4 | about 2% | N[C@@H](CC(=O)N1CCn2c(nnc2C(F)(F)F)C1)Cc1cc(F)c(F)cc1F [Form S14, Sitagliptin sulfate] | solubility ([1]; aqueous medium, aqueous buffer, pH 4.5 37° C.): 500 mg/mL; solubility ([1]; aqueous medium, aqueous buffer, pH 6.8 37° C.): 330 mg/mL; solubility ([1]; aqueous medium, aqueous buffer, pH 7.8 37° C.): 300 mg/mL; solubility ([1]; aqueous medium, simulated gastric fluid, pH 1.2, 37° C.): 500 mg/mL; Solubility in different aqueous media ([1]; different aqueous media): highly soluble; solubility ([1]; Water 37° C.): 300 mg/mL; Form after storage (XRPD) ([2]; 80% RH at 25° C. for 7 days): Si; Form after storage (XRPD) ([2]; 100% RH at 25° C. for 7 days): polymorphic mixture of form S1 and form S11; Chemical and polymorphic stability [4]: No degradation or polymorphic transformation
2 | low hygroscopicity | 2.9 | 2.9 | 2.9 | 2.9 | 4.4 | 8.9 | up to 60 % RH | 3.0 | about 2.9% | N[C@@H](CC(=O)N1CCn2c(nnc2C(F)(F)F)C1)Cc1cc(F)c(F)cc1F [Form S16, Sitagliptin sulfate] | Solubility classification ([5]; classification of the European Pharmacopoeia Commission 01/2008:5110): freely soluble; solubility ([5]; in 1 mL of water, read-out: Amount soluble in 1 mL of water): ≥ 100 mg/mL; Constant water content ([3]; corresponds to the sesquihydrate): 2.9%
